In general, Ki refers to a dissociation constant, usually derived from enzyme kinetics or from competition with a known ligand. Read a low Ki as a stronger hold on the target.

This assay concerns the target T1, Gonadotropin-releasing hormone receptor (Homo sapiens, UniProt P30968).
T1 sequence (P30968 whole entry): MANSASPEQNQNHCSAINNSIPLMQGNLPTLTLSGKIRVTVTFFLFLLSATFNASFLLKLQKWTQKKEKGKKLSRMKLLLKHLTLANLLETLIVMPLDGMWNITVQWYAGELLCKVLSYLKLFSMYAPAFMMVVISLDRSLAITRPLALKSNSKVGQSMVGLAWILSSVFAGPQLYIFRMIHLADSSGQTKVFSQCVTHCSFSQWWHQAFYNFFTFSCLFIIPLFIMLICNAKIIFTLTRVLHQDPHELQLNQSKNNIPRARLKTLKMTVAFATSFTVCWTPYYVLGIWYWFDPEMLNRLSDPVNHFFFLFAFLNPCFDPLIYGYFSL
The assay can be described thus: Binding affinity towards human gonadotropin-releasing hormone receptor (GNRHR) using GnRH peptide as radioligand.
Molecule `N[C@@H](Cn1c(=O)c(-c2ccc(C(F)(F)F)cc2Cl)cn(Cc2c(F)cccc2C(F)(F)F)c1=O)c1ccccc1` yielded a Ki of 200 nM.
`COc1cccc(-c2cn(Cc3c(F)cccc3S(=O)(=O)N(C)C)c(=O)n(C[C@H](N)c3ccccc3)c2=O)c1F`: the Ki worked out at 120 nM.
To `COc1cccc(-c2cn(Cc3c(F)cccc3S(=O)(=O)C(C)C)c(=O)n(C[C@H](N)c3ccccc3)c2=O)c1F` belongs 30 nM; to `COc1cccc(-c2cn(Cc3c(F)cccc3S(=O)(=O)N3CCOCC3)c(=O)n(C[C@H](N)c3ccccc3)c2=O)c1F`, 1400 nM; to `CCOc1cccc(-c2cn(Cc3c(F)cccc3C(F)(F)F)c(=O)n(C[C@H](N)c3ccccc3)c2=O)c1F`, 1.8 nM.
Turning to `N[C@@H](Cn1c(=O)c(-c2cccc(OCC(F)(F)F)c2F)cn(Cc2c(F)cccc2C(F)(F)F)c1=O)c1ccccc1`, the Ki was found to be 8.2 nM.
Regarding `COc1cccc(-c2cn(Cc3c(F)cccc3Cl)c(=O)n(C[C@H](N)c3ccccc3)c2=O)c1F`, the inhibition constant (Ki) was 1.4 nM.
On to `COc1cccc(-c2cn(Cc3c(F)cccc3F)c(=O)n(C[C@H](N)c3ccccc3)c2=O)c1Cl`, for which the Ki amounted to 1 nM. This Ki and that of the molecule before are within 1.5-fold of each other.
Then `COc1cccc(-c2cn(Cc3c(F)cccc3C(F)(F)F)c(=O)n(C[C@H](N)c3ccccc3)c2=O)c1Cl`, with 0.45 nM.
As for `N[C@@H](Cn1c(=O)c(-c2ccccc2F)cn(Cc2c(F)cccc2C(F)(F)F)c1=O)c1ccccc1`, the inhibition constant Ki amounted to 8 nM. This Ki lies about 18-fold higher than the previous one.
Then `COc1cccc(-c2cn(Cc3c(F)cccc3S(=O)(=O)CCO)c(=O)n(C[C@H](N)c3ccccc3)c2=O)c1F`, with 9.1 nM; and `Cc1ccc(-c2cn(Cc3c(F)cccc3C(F)(F)F)c(=O)n(C[C@H](N)c3ccccc3)c2=O)c(Cl)c1`, with 2.6 nM.
Then `COc1cccc(-c2cn(Cc3c(F)cccc3SC)c(=O)n(C[C@H](N)c3ccccc3)c2=O)c1F`, with 19 nM; and `N[C@@H](Cn1c(=O)c(-c2cccc(O)c2F)cn(Cc2c(F)cccc2F)c1=O)c1ccccc1`, with 660 nM; and `CC(C)Oc1cccc(-c2cn(Cc3c(F)cccc3C(F)(F)F)c(=O)n(C[C@H](N)c3ccccc3)c2=O)c1F`, with 6.3 nM.
To `CS(=O)(=O)c1cccc(C(F)(F)F)c1Cn1cc(-c2ccccc2Cl)c(=O)n(C[C@H](N)c2ccccc2)c1=O` belongs 3100 nM; to `N[C@@H](Cn1c(=O)c(-c2ccccc2C(F)(F)F)cn(Cc2c(F)cccc2C(F)(F)F)c1=O)c1ccccc1`, 4 nM; to `N[C@@H](Cn1c(=O)c(-c2cccc(O)c2F)cn(Cc2c(F)cccc2C(F)(F)F)c1=O)c1ccccc1`, 18 nM.

The values are drawn from ChEMBL document CHEMBL1145245, “Uracils as potent antagonists of the human gonadotropin-releasing hormone receptor without atropisomers” (Bioorg Med Chem Lett, 2005).
